Tested on: P12-Ichikawa
Assay: cell viability relative to DMSO control; higher = less cytotoxic
Conditions: 48 h
In short: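 Library compounds in DMSO were pin-dosed in an 11-point threefold series (47 μM to 0.79 nM) onto leukemia cells in 1536-well plates (5 μl). Plates held 500 cells/well of NOMO1 or SEM or 1000 cells/well of P12-Ichikawa, each adapted for at least four passages in each medium. Luminescence was read with CellTiter-Glo One after 48 h at 37°C. Viability means the per-plate percentage relative to DMSO wells, using cell-free wells as background.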

[1] = HPLM + 10% dialyzed FBS, 0.000781 µM
[2] = HPLM + 10% dialyzed FBS, 0.00234 µM
[3] = HPLM + 10% dialyzed FBS, 0.00702 µM
[4] = HPLM + 10% dialyzed FBS, 0.0211 µM
[5] = HPLM + 10% dialyzed FBS, 0.0632 µM
[6] = HPLM + 10% dialyzed FBS, 0.19 µM
[7] = HPLM + 10% dialyzed FBS, 0.569 µM
[8] = HPLM + 10% dialyzed FBS, 1.71 µM
[9] = HPLM + 10% dialyzed FBS, 5.12 µM
[10] = HPLM + 10% dialyzed FBS, 15.4 µM
[11] = HPLM + 10% dialyzed FBS, 46.1 µM
[12] = RPMI 5 mM glucose + 10% FBS, 0.000781 µM
[13] = RPMI 5 mM glucose + 10% FBS, 0.00234 µM
[14] = RPMI 5 mM glucose + 10% FBS, 0.00702 µM
[15] = RPMI 5 mM glucose + 10% FBS, 0.0211 µM
[16] = RPMI 5 mM glucose + 10% FBS, 0.0632 µM
[17] = RPMI 5 mM glucose + 10% FBS, 0.19 µM
[18] = RPMI 5 mM glucose + 10% FBS, 0.569 µM
[19] = RPMI 5 mM glucose + 10% FBS, 1.71 µM
[20] = RPMI 5 mM glucose + 10% FBS, 5.12 µM
[21] = RPMI 5 mM glucose + 10% FBS, 15.4 µM
[22] = RPMI 5 mM glucose + 10% FBS, 46.1 µM
[23] = RPMI 5 mM glucose + 10% dialyzed FBS, 0.000781 µM
[24] = RPMI 5 mM glucose + 10% dialyzed FBS, 0.00234 µM
[25] = RPMI 5 mM glucose + 10% dialyzed FBS, 0.00702 µM
[26] = RPMI 5 mM glucose + 10% dialyzed FBS, 0.0211 µM
[27] = RPMI 5 mM glucose + 10% dialyzed FBS, 0.0632 µM
[28] = RPMI 5 mM glucose + 10% dialyzed FBS, 0.19 µM
[29] = RPMI 5 mM glucose + 10% dialyzed FBS, 0.569 µM
[30] = RPMI 5 mM glucose + 10% dialyzed FBS, 1.71 µM
[31] = RPMI 5 mM glucose + 10% dialyzed FBS, 5.12 µM
[32] = RPMI 5 mM glucose + 10% dialyzed FBS, 15.4 µM
[33] = RPMI 5 mM glucose + 10% dialyzed FBS, 46.1 µM

SMILES	cell viability [1] [%]	cell viability [2] [%]	cell viability [3] [%]	cell viability [4] [%]	cell viability [5] [%]	cell viability [6] [%]	cell viability [7] [%]	cell viability [8] [%]	cell viability [9] [%]	cell viability [10] [%]	cell viability [11] [%]	cell viability [12] [%]	cell viability [13] [%]	cell viability [14] [%]	cell viability [15] [%]	cell viability [16] [%]	cell viability [17] [%]	cell viability [18] [%]	cell viability [19] [%]	cell viability [20] [%]	cell viability [21] [%]	cell viability [22] [%]	cell viability [23] [%]	cell viability [24] [%]	cell viability [25] [%]	cell viability [26] [%]	cell viability [27] [%]	cell viability [28] [%]	cell viability [29] [%]	cell viability [30] [%]	cell viability [31] [%]	cell viability [32] [%]	cell viability [33] [%]
CC#CCn1c(N2CCC[C@@H](N)C2)nc2c1c(=O)n(Cc1nc(C)c3ccccc3n1)c(=O)n2C	104	104	99.3	89.2	108	109	104	97.8	103	99.7	88.5	94.9	102	102	85.9	96.8	94.6	96.1	93.9	91.2	87.4	94.9	104	102	98.4	83.6	100	109	101	95.9	97.6	85.1	85.9
COc1cc2c(cc1OC)CN(CCc1ccc(NC(=O)c3cc(OC)c(OC)cc3NC(=O)c3cnc4ccccc4c3)cc1)CC2	114	122	115	114	110	113	111	102	65.6	62.8	44.4	124	112	112	120	112	118	105	92.7	64	54.1	47.5	114	106	116	114	113	114	99.4	92	56.4	56.6	46.5
COC1=CC=C(C(=C1)OC(C)C)C/2=N/[C@@H]([C@@H](N2C(=O)N3CCNC(=O)C3)C4=CC=C(Cl)C=C4)C5=CC=C(Cl)C=C5	108	113	115	108	109	111	108	102	76	37.1	12.1	122	125	127	119	116	118	106	111	97.2	52	49.6	122	119	116	117	125	113	112	110	88.3	41.5	27.8
COc1c(C)c2c(c(O)c1C/C=C(\C)CCC(=O)O)C(=O)OC2	108	107	111	109	113	109	103	99.1	90.5	50.2	38.2	108	110	106	104	112	104	104	85	60.9	36.7	23	103	97.8	95.3	100	104	97.6	103	82	64	39.7	28.7
CC(C)(O)CC(=O)NCCn1ccc2ncnc(Nc3ccc(Oc4cccc(C(F)(F)F)c4)c(Cl)c3)c21	120	115	116	112	111	109	108	102	87.2	69.5	60.7	110	107	121	114	121	105	107	111	93.3	75.6	52	104	113	117	109	115	113	110	106	95.8	69.1	47.4
CC[C@@H]([C@H](C)O)n1ncn(-c2ccc(N3CCN(c4ccc(OCC5CO[C@@](Cn6cncn6)(c6ccc(F)cc6F)C5)cc4)CC3)cc2)c1=O (stereo partly drawn)	102	99.8	101	96.3	98.3	91.1	100	92.2	90.8	84.9	85.1	101	102	104	97.8	95	102	92.3	91.1	92.1	88.3	82.6	87.2	98	95.1	97.9	90.9	87.7	85.7	89.8	85.1	83.5	75

Source: the supplement of paper PMC11451515
